The source of these data is paper PMC9044058 (The Journal of General Physiology, 2022).

“And” between values parts separate entries of the source, which are not always exact repeats. Equal entries are not always repeated. Where two headings read alike, the source gives them in different places.

In assay [1] the target is T1, P-GltPh (S279E/D405N) (Pyrococcus horikoshii, UniProt O59010, D37H/D405N/E368H/K125H/K132H/K223H/K264H/K40H/S279E).
T1 construct: (His)8 behind a thrombin cleavage site (C, cleaved yes); made in house; host or cells: Escherichia coli DH10B
It is filed as binding. The following applies: for fitted OFS2 fraction: L-Asp ITC, 500 mM sodium salt; for n1 / n2: single trials; for % n2 / ΔS1: trials and avg (mean ± SD). As for the experimental part: (§1) Proteins were immediately concentrated to >5 mg/ml and diluted 2.5-fold to a final concentration of 30–50 µM. When diluted, the sample was supplemented with a final concentration of 1 mM DDM, 58 mM HEPES/KOH, pH 7.4, and an appropriate amount of sodium salt. 350 μl of protein samples was degassed and equilibrated to the temperature of the experiment, and ∼300 μl was loaded into the reaction cell of a small-volume NanoITC (TA Instruments), or in the case of TFB-TBOA experiments, an Affinity Auto ITC (TA Instruments). […] 2 μl of titrant was injected every 5–6 min, at a constant temperature and a stirring rate of 250 rpm (125 rpm for TFB-TBOA experiments). Injection heats measured after protein was saturated with the ligand were used to determine the dilution heats subtracted from the ligand binding heats. Data were analyzed using NanoAnalyze software (TA Instruments) applying either the “independent” or “multiple sites” (referred to as “single-state” and “two-state,” respectively, throughout the text) binding models. […] The fraction of total protein bound is given by the following: [PS]/[P]=n1K1[S]/1+K1[S]+n2K2[S]/1+K2[S], where ni is the apparent number of sites per protein molecule.

The next assay addresses T2, GltPh (C321A/N378C) (Pyrococcus horikoshii, UniProt O59010, C321A/D37H/E368H/K125H/K132H/K223H/K264H/K40H/N378C).
T2 construct: (His)8 behind a thrombin cleavage site (C, cleaved yes); made in house; host or cells: Escherichia coli DH10B
It is filed as biochemical. The following applies: 200 mM sodium salt, 1 μM valinomycin, 1 μM L-Asp; triexponential fit; means and SEM.

Assay [2] has as its target P-GltPh (S279E/D405N) (UniProt O59010). The assay is described as follows: cryo-EM structure; P-GltPh in 0.8 mM DDM, 20 mM HEPES/Tris pH 7.4, 250 mM NaNO3, 1 mM L-Asp; C3 symmetry imposed, then symmetry expansion and focused classification of single protomers; Data S2 (L-Asp present throughout purification) and Data S1 (L-Asp added ~5 s before freezing).
The next assay deals with T3, WT GltPh (Pyrococcus horikoshii, UniProt O59010, D37H/E368H/K125H/K132H/K223H/K264H/K40H).
T3 construct: (His)8 behind a thrombin cleavage site (C, cleaved yes); made in house; host or cells: Escherichia coli DH10B
The assay is described as follows: ITC of L-Asp and TFB-TBOA binding to WT GltPh. The protocol: as §1
For the TFB-TBOA competition experiments, protein was first titrated with TBOA to saturation. Then, the concentration of TFB-TBOA was increased to a final concentration of 150 μM of TFB-TBOA, so that the overflow protein was also saturated.

Another assay deals with GltPh. Set-up: method as in earlier work. The note with it: OFS over IFS; ref Mcilwain et al., 2016; Boudker et al., 2007; Wang and Boudker, 2020; cited from earlier work.
For assay [3], the system named is liposome-reconstituted GltPh. Set-up: method as in Hall et al., 2020. The following applies: ref Hall et al., 2020; cited from earlier work.
The subject of another assay is D390A mutant. Set-up: method as in Riederer and Valiyaveetil, 2019. The following applies: ref Riederer and Valiyaveetil, 2019; cited from earlier work.
The test system of a further assay is GltPh Y317F. The arrangement: method as in Riederer and Valiyaveetil, 2019. The following applies: ref Riederer and Valiyaveetil, 2019; cited from earlier work.
[4] abbreviates: 500 mM NaCl, 10°C and 15°C, n = 6.
Setting [5] is: 10°C, 500 mM NaCl, two-state model.
Where [6] appears, read: 15°C, 500 mM NaCl, two-state model.
Where [7] appears, read: 500 mM Na-gluconate, 15°C, Fit 1.
[8] abbreviates: 500 mM Na-gluconate, 15°C, Fit 2.

T2 sequence (O59010 1-417 D37H/K40H/K125H/K132H/K223H/K264H/C321A/E368H/N378C): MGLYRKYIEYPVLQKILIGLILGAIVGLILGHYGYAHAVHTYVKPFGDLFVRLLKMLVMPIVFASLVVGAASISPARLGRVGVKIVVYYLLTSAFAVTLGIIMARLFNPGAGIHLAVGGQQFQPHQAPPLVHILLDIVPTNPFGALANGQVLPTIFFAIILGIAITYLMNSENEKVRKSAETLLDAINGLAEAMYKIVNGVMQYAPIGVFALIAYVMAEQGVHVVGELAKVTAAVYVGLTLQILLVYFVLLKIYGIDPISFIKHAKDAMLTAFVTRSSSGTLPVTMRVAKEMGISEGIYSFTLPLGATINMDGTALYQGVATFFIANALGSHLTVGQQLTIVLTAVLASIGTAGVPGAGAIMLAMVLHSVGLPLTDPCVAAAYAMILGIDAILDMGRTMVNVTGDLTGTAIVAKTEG
T1 sequence (O59010 1-417 D37H/K40H/K125H/K132H/K223H/K264H/S279E/E368H/D405N): as the sequence (O59010 1-417 D37H/K40H/K125H/K132H/K223H/K264H/C321A/E368H/N378C) above, with S279E, A321C, C378N, D405N counted along it
T3 sequence (O59010 1-417 D37H/K40H/K125H/K132H/K223H/K264H/E368H): as the sequence (O59010 1-417 D37H/K40H/K125H/K132H/K223H/K264H/C321A/E368H/N378C) above, with A321C, C378N counted along it
Method for GltPh (C321A/N378C): Liposomes were prepared from a 3:1 (wt/wt) mixture of E. coli polar lipid extract (Avanti Polar Lipids) and egg phosphatidylcholine in SM-KCl buffer (50 mM HEPES/Tris, pH 7.4, and 200 mM KCl). Liposomes were extruded through 400-nm filters (Whatman Nucleopore) using a syringe extruder (Avanti), and destabilized by the addition of Triton X-100 at 1:2 (wt/wt) detergent-to-lipid ratio. Labeled GltPh was added to the liposome suspension at 1:1,000 (wt/wt) protein-to-lipid ratio at room temperature for 30 min. Detergent was removed by six rounds incubation of Bio-Beads (two rounds at 23°C for 2 h each, one round at 4°C overnight, and three rounds at 4°C for 2 h each). The excess substrate was removed by three rounds of centrifugation for 1 h at 49,192 g at 4°C, removal of the supernatant, addition of 1 ml fresh SM buffer, and three freeze/thaw cycles. Liposomes were concentrated to 50 mg/ml, and ccPEB1a-Y198F labeled with activated LD555P-MAL and LD655-MAL dyes as described ([Ciftci et al., 2020]) was added at a final concentration of 0.6 μM and encapsulated by two freeze–thaw cycles. To remove unencapsulated ccPEB1a-Y198F, 1 ml of SM-KCl buffer was added, and liposomes were centrifuged for 1 h at 49.192 g at 4°C. […]
Buffers were supplemented with an oxygen-scavenging system as above, and the smFRET movies were recorded with 400-ms integration time using 20–40-mW laser power. […]
Traces were analyzed using Spartan software ([Juette et al., 2016]). […] Traces with multiple photobleaching events (indicative of multiple sensors in a liposome) or inconsistent total fluorescence intensity were also discarded. Remaining traces were sorted by either the presence or absence of observable transport events (responding and nonresponding traces, respectively), determined by an increase in FRET efficiency from ∼0.55–0.6 to ∼0.75–0.8.
Responding traces from each video were plotted as time-dependent mean FRET efficiency. Buffer replacement time was determined as described ([Ciftci et al., 2020]). […]

Consider `[Cl-].[Na+]` [NaCl], for which the “fitted OFS2 fraction” value on P-GltPh (S279E/D405N) [1] (10°C) was approximately 20%; on P-GltPh (S279E/D405N) [1] (15°C) it was approximately 28%. Also, on GltPh (C321A/N378C), the “Slow (%) transporter population” value was 79.5 ± 3.4%.
On to `O=[N+]([O-])[O-].[Na+]` [NaNO3], for which, at P-GltPh (S279E/D405N) [1] (15°C), the “fitted OFS2 fraction” value was approximately 38%. Further, on GltPh (C321A/N378C), the “Slow (%) transporter population” value worked out at 87.3 ± 2.2%.
With “P-GltPh (S279E/D405N) (from UniProt O59010 1-417)”, the stoichiometry N (usually the number of molecules, sites or subunits per partner or assembly) in the assay with P-GltPh (S279E/D405N) [2] amounted to 3.
For `N[C@H](C(=O)O)[C@H](OCc1cccc(NC(=O)c2ccc(C(F)(F)F)cc2)c1)C(=O)O` [TFB-TBOA], on WT GltPh (15°C, 500 mM Na-gluconate, NaCl or NaNO3), the “shape of ITC binding isotherms” value is listed as “bimodal ITC isotherms”. In the assay on GltPh, the “preference for OFS” value is recorded as 100 fold.
With `O=C([O-])[C@H](O)[C@@H](O)[C@H](O)[C@H](O)CO.[Na+]` [Na-gluconate, sodium gluconate], the “Slow (%) transporter population” value on GltPh (C321A/N378C) is 81.1 ± 3.1%.
Turning to `N[C@@H](CC(=O)O)C(=O)O` [L-Asp, L-aspartate], the “sums of the apparent stoichiometries (n1 and n2 values), average” value on P-GltPh (S279E/D405N) [1] (setting [4]) is listed as 0.97 ± 0.26. Also, the “sums of the apparent stoichiometries (n1 and n2 values), range” value on P-GltPh (S279E/D405N) [1] (setting [4]) is on record as 0.74–1.53. The n1 is 0.61 and 0.64 and 0.78 on P-GltPh (S279E/D405N) [1] (setting [5]); 1.13 and 0.64 and 0.63 at P-GltPh (S279E/D405N) [1] (setting [6]); 0.82 at WT GltPh (setting [7]); 0.37 at WT GltPh (setting [8]); 0.16 on WT GltPh (500 mM Na-gluconate, 35°C). Further, the n2 was 0.13 and 0.20 and 0.18 on P-GltPh (S279E/D405N) [1] (setting [5]); 0.39 and 0.22 and 0.29 on P-GltPh (S279E/D405N) [1] (setting [6]); 0.36 on WT GltPh (setting [7]); 0.89 on WT GltPh (setting [8]); 1.30 on WT GltPh (500 mM Na-gluconate, 35°C). Moreover, the “% n2” value on P-GltPh (S279E/D405N) [1] (setting [5]) is 18% and 24% and 19%; at P-GltPh (S279E/D405N) [1] (setting [6]), 26% and 31%. For the same compound, the ΔS1 on P-GltPh (S279E/D405N) [1] (setting [5]) was 32.2 cal mol^-1 K^-1 and 40.0 cal mol^-1 K^-1 and 31.1 cal mol^-1 K^-1; on P-GltPh (S279E/D405N) [1] (setting [6]) it was 29.4 cal mol^-1 K^-1 and 29.2 cal mol^-1 K^-1 and 31.4 cal mol^-1 K^-1. In addition, the ΔH at P-GltPh (S279E/D405N) [1] (15°C, 50 mM NaCl, single-state model) was -2.3 kcal/mol; at P-GltPh (S279E/D405N) [1] (15°C, 500 mM Na-gluconate, two-state model, first state) it was -2.3 kcal/mol; at P-GltPh (S279E/D405N) [1] (15°C, 500 mM Na-gluconate, two-state model, second state) it was -5.5 kcal/mol; at P-GltPh (S279E/D405N) [1] (15°C, 500 mM NaCl, two-state model, first state), -3.3 kcal/mol; on P-GltPh (S279E/D405N) [1] (15°C, 500 mM NaCl, two-state model, second state), -7.1 kcal/mol; on P-GltPh (S279E/D405N) [1] (15°C, 500 mM NaNO3, two-state model, first state), -2.1 kcal/mol. Besides, the ΔH on P-GltPh (S279E/D405N) [1] (15°C, 500 mM NaNO3, two-state model, second state) is -6.5 kcal/mol; on P-GltPh (S279E/D405N) [1] (15°C, 1 M NaCl, two-state model, first state), -3.7 kcal/mol; on P-GltPh (S279E/D405N) [1] (15°C, 1 M NaCl, two-state model, second state) it was -8.7 kcal/mol. Also, the ΔH1 at WT GltPh (setting [7]) is -22.7 kcal/mol; on WT GltPh (setting [8]), -50.0 kcal/mol; at WT GltPh (500 mM Na-gluconate, 35°C) it was -24.6 kcal/mol. Further, the ΔH2 is 39.4 kcal/mol at WT GltPh (setting [7]); 16.2 kcal/mol on WT GltPh (setting [8]); -4.7 kcal/mol at WT GltPh (500 mM Na-gluconate, 35°C). For the same compound, the “shape of ITC competition isotherms” value at WT GltPh (GltPh saturated with TFB-TBOA, competed with L-Asp, 15°C) was “bimodal isotherms”. Also, the Hill coefficient (as a rule, the slope factor of the fitted curve) in assay [3] is given as 0.69. Further, in the assay with D390A mutant, the “lower affinity versus GltPh” value was 1,000 fold. The “loss of L-Asp affinity” value in the assay with GltPh Y317F is recorded as 10 fold.
